Results taken from US7842809B2, “Pyrazolopyridines and salts thereof, a pharmaceutical composition comprising said compounds, a method of preparing same and use of same” (Bayer Schering Pharma AG, priority 2005, dated 2010).

Assays:
Tie2 [1] = molecular target: T1, Tie2 (Homo sapiens, UniProt Q02763); assay: Tie-2 ELISA: angiopoietin-2 stimulated Tie2 autophosphorylation in Tie2-transfected CHO cells (Biological Experiment 1); assay type: cell-based; parameters: expressed in transfected cells; host or cells: CHO (DHFR-deficient), stably transfected; settings: mean IC50; CHO Tie2/DHFR cells stimulated with Ang2-Fc
Procedure: Biological Experiment 1: ELISA-Assay
Herein CHO cell-cultures, which are stably transfected by known techniques with Tie2 using DHFR deficiency as selection marker, are stimulated by angiopoietin-2. The specific autophosphorylation of Tie2 receptors is quantified with a sandwich-ELISA using anti-Tie2 antibodies for catch and anti-phosphotyrosine antibodies coupled to HRP as detection.
• 1 cap Vanadate (1 mL>40 mg/mL; working solution 2 mM) • ad 50 mL with Duschl buffer • pH 7.6 Anti-TIE-II antibody 1:425 in Coating Buffer pH 9.6 Stock solution: 1.275 mg/ml>working.: 3 μg/mL PBST: 2 bottles PBS(10×)+10 ml Tween, fill up with deionised water RotiBlock 1:10 in deionised water Anti-Phosphotyrosine HRP-Conjugated 1:10000 in 3% TopBlock • 3% TopBlock in PBST BM Chemiluminescence ELISA Substrate (POD) • solution B 1:100 solution A SF9 cell culture medium Ang2-Fc in SF9 cell culture medium Cell Experiment: Dispense 5×10^4 cells/well/98 μl in 96 well tissue culture plate Incubate at 37° C./5% CO2 After 24 h add compounds according to desired concentrations Add also to control and stimulated values without compounds 2 μl DMSO And mix for a few min at room temperature Add 100 μAng2-Fc to all wells except control, which receives insect medium Incubate 20 min at 37° C. Wash 3× with PBS++ Add 100 μl Lysis buffer/well and shake a couple of min at room temperature Store lysates at […] before utilizing for the ELISA Performance of Sandwich-ELISA Coat 96 well FluoroNunc Plate MaxiSorp Surface C with anti-Tie2 Mab 1:425 in Coating buffer pH 9.6; 100 μL/well overnight at 4° C. Wash 2× with PBST Block plates with 250 μL/well RotiBlock 1:10 in deionised water Incubate for 2 h at room temperature or overnight at 4° C. shaking Wash 2× in PBST Add thawed lysates to wells and incubate overnight shaking at 4° C. Wash 2× with PBST Add 100 μL/well anti-Phosphotyrosine HRP-Conjugated 1:10000 in 3% TopBlock (3% TopBlock in PBST) and incubate overnight under shaking Wash 6× with PBST Add 100 μL/well BM Chemiluminescence ELISA Substrate (POD solutions 1 and 2 (1:100) Determine luminescence with the LumiCount. Biological Experiment 2: Tie-2-Kinase HTRF-Assay
Target sequence in this assay (Q02763 23-1124): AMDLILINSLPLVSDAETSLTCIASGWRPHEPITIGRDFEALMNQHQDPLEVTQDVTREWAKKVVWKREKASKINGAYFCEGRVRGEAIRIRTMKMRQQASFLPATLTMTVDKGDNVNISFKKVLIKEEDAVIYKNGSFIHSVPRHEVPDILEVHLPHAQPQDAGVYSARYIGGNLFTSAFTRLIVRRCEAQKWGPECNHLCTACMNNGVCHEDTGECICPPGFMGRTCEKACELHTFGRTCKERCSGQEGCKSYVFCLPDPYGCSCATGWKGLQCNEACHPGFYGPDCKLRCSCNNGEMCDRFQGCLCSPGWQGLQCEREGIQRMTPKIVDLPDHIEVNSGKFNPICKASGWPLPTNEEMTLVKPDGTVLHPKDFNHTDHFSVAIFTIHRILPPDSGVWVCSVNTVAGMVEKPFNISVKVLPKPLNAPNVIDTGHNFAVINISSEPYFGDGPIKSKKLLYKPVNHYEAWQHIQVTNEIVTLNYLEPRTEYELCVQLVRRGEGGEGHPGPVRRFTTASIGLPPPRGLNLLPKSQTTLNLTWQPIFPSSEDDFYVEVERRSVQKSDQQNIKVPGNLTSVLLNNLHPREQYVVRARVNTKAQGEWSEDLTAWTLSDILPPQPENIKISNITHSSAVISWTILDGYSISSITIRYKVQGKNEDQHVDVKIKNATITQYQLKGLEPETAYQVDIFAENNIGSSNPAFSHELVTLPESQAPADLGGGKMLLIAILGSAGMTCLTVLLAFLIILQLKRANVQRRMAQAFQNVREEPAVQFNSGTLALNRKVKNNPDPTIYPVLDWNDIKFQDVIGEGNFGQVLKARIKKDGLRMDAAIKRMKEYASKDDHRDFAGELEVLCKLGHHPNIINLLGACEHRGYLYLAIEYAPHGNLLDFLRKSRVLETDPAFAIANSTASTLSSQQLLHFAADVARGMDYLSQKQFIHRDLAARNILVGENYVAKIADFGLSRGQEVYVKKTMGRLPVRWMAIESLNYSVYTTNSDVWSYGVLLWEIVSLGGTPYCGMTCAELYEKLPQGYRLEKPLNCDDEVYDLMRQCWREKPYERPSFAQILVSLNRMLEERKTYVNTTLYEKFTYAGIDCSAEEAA

Tie2 [2] = molecular target: T1, Tie2; assay: Tie-2 kinase assay without preactivation of kinase (Biological Experiment 3, HTRF); assay type: biochemical; parameters: fusion protein of GST and the intracellular domains of Tie-2; GST; made in house; host or cells: insect cells (Hi-5); settings: mean IC50; GST-Tie-2 without preactivation, 10 μM ATP; read-out: Inhibition of Tie-2 kinase (Biological Experiment 3)
Excerpt: Biological Experiment 3: Tie-2 Kinase Assay without Preactivation of Kinase
A recombinant fusion protein of GST and the intracellular domains of Tie-2, expressed in insect cells (Hi-5) and purified by Glutathion-Sepharose affinity chromatography was used as kinase. Alternatively, commercially available GST-Tie2-fusion protein (Upstate Biotechnology, Dundee, Scotland) can be used. As substrate for the kinase reaction the biotinylated peptide biotin-Ahx-EPKDDAYPLYSDFG (C-terminus in amide form) was used which can be purchased e.g. from the company Biosynthan GmbH (Berlin-Buch, Germany). Tie-2 (3.5 ng/measurement point) was incubated for 60 min at 22° C. in the presence of 10 μM adenosine-tri-phosphate (ATP) and 1 μM substrate peptide (biotin-Ahx-EPKDDAYPLYSDFG-NH2) with different concentrations of test compounds (0 μM and concentrations in the range 0.001-20 μM) in 5 μl assay buffer [50 mM Hepes/NaOH pH 7, 10 mM MgCl2, 0.5 mM MnCl2, 1.0 mM dithiothreitol, 0.01% NP40, protease inhibitor mixture (“Complete w/o EDTA” from Roche, 1 tablet per 2.5 ml), 1% (v/v) dimethylsulfoxide]. To stabilize the enzyme, bovine serum albumin (0.1%, w/v) can be added. The reaction was stopped by the addition of 5 μl of an aqueous buffer (25 mM Hepes/NaOH pH 7.5, 0.28% (w/v) bovine serum albumin) containing EDTA (90 mM) and the HTRF (Homogeneous Time Resolved Fluorescence) detection reagents streptavidine-XLent (0.2 μM, from C is Biointernational, Marcoule, France) and PT66-Eu-Chelate (0.3 ng/μl; a europium-chelate labelled anti-phospho-tyrosine antibody from Perkin Elmer).
The resulting mixture was incubated 1 h at 22° C. to allow the binding of the biotinylated phosphorylated peptide to the streptavidine-XLent and the PT66-Eu-Chelate. Subsequently the amount of phosphorylated substrate peptide was evaluated by measurement of the resonance energy transfer from the PT66-Eu-Chelate to the streptavidine-XLent. Therefore, the fluorescence emissions at 620 nm and 665 nm after excitation at 350 nm was measured in a HTRF reader, e.g. a Rubystar (BMG Labtechnologies, Offenburg, Germany) or a Viewlux (Perkin-Elmer). The ratio of the emissions at 665 nm and at […] was taken as the measure for the amount of phosphorylated substrate peptide. The data were normalised (enzyme reaction without inhibitor=0% inhibition, all other assay components but no enzyme=100% inhibition) and IC50 values were calculated by a 4 parameter fit using an inhouse software.
Target sequence in this assay (Q02763 770-1124 limits assumed): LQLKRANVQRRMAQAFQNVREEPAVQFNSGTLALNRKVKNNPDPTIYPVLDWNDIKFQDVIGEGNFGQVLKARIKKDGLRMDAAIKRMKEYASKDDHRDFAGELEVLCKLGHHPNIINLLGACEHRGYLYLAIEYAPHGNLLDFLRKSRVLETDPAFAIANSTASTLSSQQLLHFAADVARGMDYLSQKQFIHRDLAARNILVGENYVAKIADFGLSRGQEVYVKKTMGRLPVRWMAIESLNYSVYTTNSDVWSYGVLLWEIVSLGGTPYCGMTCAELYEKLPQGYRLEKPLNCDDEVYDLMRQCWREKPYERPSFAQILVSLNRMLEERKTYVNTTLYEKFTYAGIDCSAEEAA

VEGFR-2 = molecular target: T2, VEGFR-2 (Homo sapiens, UniProt P35968); assay: VEGFR-2 kinase assay (Biological Experiment 5, HTRF); assay type: biochemical; settings: mean IC50; recombinant VEGFR-2, 10 μM ATP; read-out: Inhibition of VEGFR-2 kinase
T2 construct: made in house; host or cells: E. coli
T2 sequence (P35968 20-1356): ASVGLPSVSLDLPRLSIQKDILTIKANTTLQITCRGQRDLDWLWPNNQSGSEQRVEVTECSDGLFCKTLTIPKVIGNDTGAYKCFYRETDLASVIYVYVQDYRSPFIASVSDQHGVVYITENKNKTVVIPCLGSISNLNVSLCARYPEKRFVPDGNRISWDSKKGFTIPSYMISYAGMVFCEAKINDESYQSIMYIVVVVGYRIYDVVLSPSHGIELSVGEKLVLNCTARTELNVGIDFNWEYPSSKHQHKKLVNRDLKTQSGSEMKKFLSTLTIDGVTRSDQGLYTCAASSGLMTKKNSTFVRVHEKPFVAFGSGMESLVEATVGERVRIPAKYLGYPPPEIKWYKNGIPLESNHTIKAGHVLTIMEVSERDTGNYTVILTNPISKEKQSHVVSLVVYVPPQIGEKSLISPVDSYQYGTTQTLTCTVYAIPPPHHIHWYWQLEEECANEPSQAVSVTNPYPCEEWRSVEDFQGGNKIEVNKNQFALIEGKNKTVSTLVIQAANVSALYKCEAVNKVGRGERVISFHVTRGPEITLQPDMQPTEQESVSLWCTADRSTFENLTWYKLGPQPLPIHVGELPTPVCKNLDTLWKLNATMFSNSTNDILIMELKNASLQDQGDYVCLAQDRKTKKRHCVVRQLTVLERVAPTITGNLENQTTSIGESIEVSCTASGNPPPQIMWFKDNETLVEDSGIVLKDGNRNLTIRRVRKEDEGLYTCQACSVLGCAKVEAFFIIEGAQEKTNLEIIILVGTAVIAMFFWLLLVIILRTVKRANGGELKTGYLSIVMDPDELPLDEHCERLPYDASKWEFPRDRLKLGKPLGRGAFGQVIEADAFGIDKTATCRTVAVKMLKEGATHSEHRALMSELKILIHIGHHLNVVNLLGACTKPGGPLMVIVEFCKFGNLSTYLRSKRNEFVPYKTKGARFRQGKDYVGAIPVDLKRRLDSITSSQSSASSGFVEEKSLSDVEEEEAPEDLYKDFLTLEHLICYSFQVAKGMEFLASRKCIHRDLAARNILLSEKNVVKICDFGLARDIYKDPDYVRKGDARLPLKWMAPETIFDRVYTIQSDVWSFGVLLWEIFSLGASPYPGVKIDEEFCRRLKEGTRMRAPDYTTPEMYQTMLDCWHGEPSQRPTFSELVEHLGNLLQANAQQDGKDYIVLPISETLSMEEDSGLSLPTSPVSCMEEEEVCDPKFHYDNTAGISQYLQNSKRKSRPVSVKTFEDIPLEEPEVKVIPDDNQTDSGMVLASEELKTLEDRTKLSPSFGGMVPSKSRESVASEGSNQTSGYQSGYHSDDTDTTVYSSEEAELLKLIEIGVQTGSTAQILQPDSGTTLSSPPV
Procedure: Biological Experiment 5: VEGFR-2 Kinase Assay
Recombinant VEGFR-2 protein was expressed in E. coli and purified. As kinase substrate, a biotinylated peptide with the amino acid sequence biotin-DFGLARDMYDKEYYSVG was used, which was obtained from Biosynthan.
VEGFR-2 [Test volume 5 μL] was incubated for 45 min at 22° C. in the presence of different concentrations of test substances (0 μM, including 10 datapoints within the range 0.001-20 μM in duplicate) in assay buffer [50 mM HEPES pH7.0, 25.0 mM MgCl2, 5.0 mM MnCl2, 0.1 mM Na ortho-Vanadate, 1.0 mM Dithiothreitol, 0.001% NP40, 10 μM ATP, 1.2 μM peptide substrate, 1.0% DMSO]. The reaction was stopped by addition of 5 μL of an EDTA/detection-solution [50 mM HEPES pH7.5, 125 mM EDTA, 0.2% BSA, 0.1 μM Streptavidin-XLent (obtained from CisBio), 1 nM PT66-Eu (obtained from PerkinElmer)]. The measurement of the fluorescence emission at 620 nm and 665 nm through excitation with light of wavelength 350 nm was accomplished in a Rubystar HTRF-measurement instrument obtained from BMG Labsystems.
The data (ratio of emission at 665 nm to emission at 620 nm multiplied by 10000) was normalised to 0% inhibition (enzyme reaction without inhibitor) and 100% inhibition (all assay components without enzyme). The determination of the IC50 values was accomplished with a 4-parameter fit using in-house software.

Row | SMILES | IC50 (Tie2 [1]) [nM] | IC50 (Tie2 [2]) [nM] | IC50 (VEGFR-2) [nM]
1 | CC(C)c1cc(-c2ccc(NC(=O)Nc3cccc(C(F)(F)F)c3)cc2)c2c(N)n[nH]c2n1 [Example 16, 1-[4-(3-amino-6-isopropyl-1H-pyrazolo[3,4-b]pyridin-4-yl)-phenyl]-3-(3-trifluoromethyl-phenyl)-urea] | ≤ 500 | ≤ 500 | ≤ 500
2 | CC(C)(C)c1cc(-c2ccc(NC(=O)Nc3ccc(F)cc3)cc2)c2c(N)n[nH]c2n1 [Example 12, 1-[4-(3-amino-6-tert-butyl-1H-pyrazolo[3,4-b]pyridin-4-yl)-phenyl]-3-(4-fluoro-phenyl)-urea] | ≤ 500 | 500 to 2000 | –
3 | Nc1n[nH]c2nc(C3CC3)cc(-c3ccc(NC(=O)Nc4ccccc4)cc3)c12 [Example 14, 1-[4-(3-amino-6-cyclopropyl-1H-pyrazolo[3,4-b]pyridin-4-yl)-phenyl]-3-phenyl-urea] | ≤ 500 | 500 to 2000 | ≤ 500
4 | CC(C)(C)c1cc(-c2ccc(NC(=O)Nc3ccccc3)cc2)c2c(N)n[nH]c2n1 [Example 1, 1-[4-(3-amino-6-tert-butyl-1H-pyrazolo[3,4-b]pyridin-4-yl)-phenyl]-3-phenyl-urea] | 500 to 2000 | ≤ 500 | 500 to 2000
5 | Cc1ccc(C(=O)Nc2ccc(-c3cc(C(C)(C)C)nc4[nH]nc(N)c34)cc2)cc1 [Example 17, N-[4-(3-amino-6-tert-butyl-1H-pyrazolo[3,4-b]pyridin-4-yl)-phenyl]-4-methyl-benzamide] | 500 to 2000 | 500 to 2000 | 500 to 2000
6 | CC(C)(C)c1cc(-c2ccc(NS(=O)(=O)c3ccccc3)cc2)c2c(N)n[nH]c2n1 [Example 2, N-[4-(3-amino-6-tert-butyl-1H-pyrazolo[3,4-b]pyridin-4-yl)-phenyl]-benzenesulfonamide] | 500 to 2000 | 500 to 2000 | –
7 | CC(C)(C)c1cc(-c2ccc(NC(=O)Nc3cccc(F)c3)cc2)c2c(N)n[nH]c2n1 [Example 3, 1-[4-(3-amino-6-tert-butyl-1H-pyrazolo[3,4-b]pyridin-4-yl)-phenyl]-3-(3-fluoro-phenyl)-urea] | ≤ 500 | 500 to 2000 | –
8 | Cc1cccc(NC(=O)Nc2ccc(-c3cc(C(C)(C)C)nc4[nH]nc(N)c34)cc2)c1 [Example 9, 1-[4-(3-amino-6-tert-butyl-1H-pyrazolo[3,4-b]pyridin-4-yl)-phenyl]-3-m-tolyl-urea] | ≤ 500 | ≤ 500 | 500 to 2000
9 | Nc1n[nH]c2nc(C3CC3)cc(-c3ccc(NC(=O)Nc4ccccc4F)cc3)c12 [Example 15, 1-[4-(3-amino-6-cyclopropyl-1H-pyrazolo[3,4-b]pyridin-4-yl)-phenyl]-3-(2-fluoro-phenyl)-urea] | ≤ 500 | ≤ 500 | 500 to 2000

Results, then the molecule that gave them:

Row | IC50 (Tie2 [1]) [nM] | IC50 (Tie2 [2]) [nM] | IC50 (VEGFR-2) [nM] | SMILES
10 | 500 to 2000 | 500 to 2000 | – | CC(C)(C)c1cc(-c2ccc(NC(=O)Cc3ccccc3)cc2)c2c(N)n[nH]c2n1 [Example 47, N-[4-(3-amino-6-tert-butyl-1H-pyrazolo[3,4-b]pyridin-4-yl)-phenyl]-2-phenyl-acetamide]
11 | ≤ 500 | 500 to 2000 | – | CC(C)(C)c1cc(-c2ccc(NC(=O)C(C)(C)c3ccccc3)cc2)c2c(N)n[nH]c2n1 [Example 51, N-[4-(3-amino-6-tert-butyl-1H-pyrazolo[3,4-b]pyridin-4-yl)-phenyl]-2-phenyl-isobutyramide]
12 | ≤ 500 | ≤ 500 | ≤ 500 | CC(C)(C)c1cc(-c2ccc(NC(=O)Nc3cc(C(F)(F)F)ccc3F)cc2)c2c(N)n[nH]c2n1 [Example 37, 1-[4-(3-amino-6-tert-butyl-1H-pyrazolo[3,4-b]pyridin-4-yl)-phenyl]-3-(2-fluoro-5-trifluoromethyl-phenyl)-urea]
13 | – | ≤ 500 | – | Cc1ccc(F)c(NC(=O)Nc2ccc(-c3cc(C(C)(C)C)nc4[nH]nc(N)c34)cc2)c1 [Example 31, 1-[4-(3-amino-6-tert-butyl-1 H-pyrazolo[3,4-b]pyridin-4-yl)-phenyl]-3-(2-fluoro-5-methyl-phenyl)-urea]
14 | ≤ 500 | ≤ 500 | ≤ 500 | CC(C)(C)c1cc(-c2ccc(NC(=O)Nc3cccc(C(F)(F)F)c3)cc2)c2c(N)n[nH]c2n1 [Example 27, 1-[4-(3-amino-6-tert-butyl-1H-pyrazolo-[3,4-b]pyridin-4-yl)-phenyl]-3-(3-trifluoro-methyl-phenyl)-urea]
15 | ≤ 500 | ≤ 500 | – | CC(C)(C)c1cc(-c2ccc(NC(=O)C3(c4ccccc4)CC3)cc2)c2c(N)n[nH]c2n1 [Example 49, 1-phenyl-cyclopropanecarboxylic acid [4-(3-amino-6-tert-butyl-1H-pyrazolo[3,4-b]pyridin-4-yl)-phenyl]-amide]
